Data on eight compounds can be found in PMC4887995, “Small molecule dual-inhibitors of TRPV4 and TRPA1 for attenuation of inflammation and pain” (Scientific Reports, 2016).

Test [1] has as its target TRPV4 (Rattus norvegicus, UniProt Q9ERZ8). As to conditions: for average peak ∆Ca++ concentration: ≈100 cells, vehicle control 1156.
Description: We assessed TRPV4-inhibitory potency of these synthetic compounds in a Ca^++ imaging assay in neuronal 2a (N2a) permanent tissue culture cells with directed expression of mammalian (rat) TRPV4. […] For first round assessment, all TRPV4-inhibitory compounds were used at 5 μM (Fig. 2A).
(A) Ca^++ imaging screening of all compounds in N2A cells with directed expression of TRPV4 (rat). […] The number on each bar corresponds to average peak ∆Ca^++ concentrations in ≈100 cells. Inset: micrographs of pseudo-colored cells before and after activation with 5nM GSK101, in addition note the corresponding time course of the averaged Ca^++ signal (fura-2 Ca^++ imaging). […] Plot generated from averaged peak ∆Ca^++ concentration of ≥75 cells per data-point.
TRPV4-eGFP from rat was used, previously found to respond to stimulation with GSK101 and hypotonicity in similar manner as native, non-fused TRPV4.
Test [2] has as its system formalin-evoked trigeminal irritant pain. Put plainly: Trigeminal formalin irritant pain model, WT mice. As to conditions: 10 mg/kg i.p., 15 min before 4% formalin, 15–45 min. Format: in vivo, mouse. Here is the method:
Figure 7 16-8 and 16-19 effectively attenuate formalin-evoked trigeminal irritant pain. (A) Time-course of nocifensive behavior in WT mice following whisker-pad injection of 4% formalin. The mice were pre-injected (i.p., 10 mg/kg; 15 min before formalin) with GSK205, 16-8 or 16-19. Note effective reduction of nocifensive behavior in the late “neural” phase by compounds 16-8, 16-19, not by GSK205. (B) Cumulative response binned into 3 phases: acute phase (0–5 min), interphase (5–15 min), and late “neural” phase (15–45 min). […] (C) As in (A), but also including Trpv4^−/− mice. Compounds were applied i.p. 15 min before formalin challenge, at 10 mg/kg except established TRPA1 blocker, A967079 (25 mg/kg). Previously-established attenuated nocifensive behavior in early and late phase in Trpv4^−/− mice was recapped, which was reduced further by TRPA1 blocker, A967079. (D) As in (B), plus inclusion of Trpv4^−/− mice. Robust effects of TRPA1-blocker, A967079, were mimicked equi-potently by 16-8 and 16-19 for early phase, and by 16-8 for late phase, partially by 16-19 for late phase. (A,C) show averaged behavioral metrics per time-point, bars in (B,D) represent mean ± SEM; for (D) ^*P < 0.05; ^#P < 0.005, one-way ANOVA; for all panels n = 5–8 mice/group. Implementation of this model was conducted as described previously. Video-taped nocifensive behavior was assessed by investigators blinded to genotype and treatment.

The test system is the same in test [3]. Details: method as in PMID 25281928. As to conditions: intradermal injection; cited from earlier work.
The target in test [4] is TRPA1 (Mus musculus, UniProt Q8BLA8).
Description: Mean±SEM is shown, ≥100 cells per condition. […] Plot generated from averaged peak ∆Ca^++ concentration of ≥75 cells per data-point.
N2a cells were used for directed expression of TRP ion channels as described previously[13]. […] All other channels were native channels from mouse, eGFP was co-transfected. […] Ca^++ imaging was performed as described previously[13][14][34].
To visualize dose-response relationships, Hill plots were conducted using the Igor Pro software program, which derived the plots based on the following equation:
In test [5] the test system is formalin-evoked trigeminal irritant pain (TRPA1 contribution). Put plainly: Trigeminal formalin irritant pain model, Trpv4-/- mice. Format: in vivo, mouse. As to conditions: 25 mg/kg i.p. Here is the method:
Figure 7 16-8 and 16-19 effectively attenuate formalin-evoked trigeminal irritant pain. (A) Time-course of nocifensive behavior in WT mice following whisker-pad injection of 4% formalin. The mice were pre-injected (i.p., 10 mg/kg; 15 min before formalin) with GSK205, 16-8 or 16-19. Note effective reduction of nocifensive behavior in the late “neural” phase by compounds 16-8, 16-19, not by GSK205. (B) Cumulative response binned into 3 phases: acute phase (0–5 min), interphase (5–15 min), and late “neural” phase (15–45 min). […] (C) As in (A), but also including Trpv4^−/− mice. Compounds were applied i.p. 15 min before formalin challenge, at 10 mg/kg except established TRPA1 blocker, A967079 (25 mg/kg). Previously-established attenuated nocifensive behavior in early and late phase in Trpv4^−/− mice was recapped, which was reduced further by TRPA1 blocker, A967079. (D) As in (B), plus inclusion of Trpv4^−/− mice. Robust effects of TRPA1-blocker, A967079, were mimicked equi-potently by 16-8 and 16-19 for early phase, and by 16-8 for late phase, partially by 16-19 for late phase. (A,C) show averaged behavioral metrics per time-point, bars in (B,D) represent mean ± SEM; for (D) ^*P < 0.05; ^#P < 0.005, one-way ANOVA; for all panels n = 5–8 mice/group. […] We observed significant residual irritant-pain behavior in all phases of the formalin model in Trpv4^−/− mice, consistent with our previous report[13] (Fig. 7C,D). […] A reference TRPA1-inhibitory compound, A967079, was used at 25 mg/kg body weight as a positive control to inhibit TRPA1, based on a previous report. Reduction of pain behavior in Trpv4^−/− mice was striking, more than 50% in the late neural phase. […] We conclude that compound 16-8 also functions as a potent TRPA1-inhibitor in an in-vivo irritant pain model specifically designed to assess the contribution of TRPA1 to trigeminal irritant pain, and at least as potent as an established reference TRPA1-antagonistic compound. Implementation of this model was conducted as described previously. Video-taped nocifensive behavior was assessed by investigators blinded to genotype and treatment.

“Also recorded” adds a separate entry of the source.

Chain of TRPA1 (Q8BLA8 whole entry): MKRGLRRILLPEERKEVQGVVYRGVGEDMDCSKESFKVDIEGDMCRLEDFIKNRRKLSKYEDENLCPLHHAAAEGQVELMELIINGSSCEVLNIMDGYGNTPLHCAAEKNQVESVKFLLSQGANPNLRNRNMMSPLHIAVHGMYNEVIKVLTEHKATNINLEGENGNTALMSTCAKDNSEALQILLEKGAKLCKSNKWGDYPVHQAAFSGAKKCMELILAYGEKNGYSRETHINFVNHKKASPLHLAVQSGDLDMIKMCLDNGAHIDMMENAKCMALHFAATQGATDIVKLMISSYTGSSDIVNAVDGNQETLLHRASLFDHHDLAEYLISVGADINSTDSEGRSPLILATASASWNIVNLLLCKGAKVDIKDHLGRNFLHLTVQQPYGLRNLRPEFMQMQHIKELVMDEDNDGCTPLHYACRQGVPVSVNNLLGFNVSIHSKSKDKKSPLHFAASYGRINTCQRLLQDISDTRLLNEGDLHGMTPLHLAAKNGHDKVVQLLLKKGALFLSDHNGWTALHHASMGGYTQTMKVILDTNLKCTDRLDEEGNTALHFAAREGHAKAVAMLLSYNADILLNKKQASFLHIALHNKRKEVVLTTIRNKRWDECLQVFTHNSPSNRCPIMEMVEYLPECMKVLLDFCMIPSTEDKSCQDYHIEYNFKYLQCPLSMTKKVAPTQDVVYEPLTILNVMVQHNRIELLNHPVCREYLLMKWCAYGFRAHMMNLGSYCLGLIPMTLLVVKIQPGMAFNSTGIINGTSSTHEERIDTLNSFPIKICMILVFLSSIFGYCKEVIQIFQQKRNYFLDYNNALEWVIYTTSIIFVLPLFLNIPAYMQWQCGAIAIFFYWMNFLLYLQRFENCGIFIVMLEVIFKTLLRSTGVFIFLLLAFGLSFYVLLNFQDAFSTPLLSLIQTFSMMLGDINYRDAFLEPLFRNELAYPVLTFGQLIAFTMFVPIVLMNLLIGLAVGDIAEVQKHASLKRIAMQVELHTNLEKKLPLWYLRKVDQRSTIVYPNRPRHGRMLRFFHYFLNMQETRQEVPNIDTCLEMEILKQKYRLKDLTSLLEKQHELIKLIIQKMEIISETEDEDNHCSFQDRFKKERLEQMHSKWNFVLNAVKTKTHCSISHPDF
Chain of TRPV4 (Q9ERZ8 whole entry): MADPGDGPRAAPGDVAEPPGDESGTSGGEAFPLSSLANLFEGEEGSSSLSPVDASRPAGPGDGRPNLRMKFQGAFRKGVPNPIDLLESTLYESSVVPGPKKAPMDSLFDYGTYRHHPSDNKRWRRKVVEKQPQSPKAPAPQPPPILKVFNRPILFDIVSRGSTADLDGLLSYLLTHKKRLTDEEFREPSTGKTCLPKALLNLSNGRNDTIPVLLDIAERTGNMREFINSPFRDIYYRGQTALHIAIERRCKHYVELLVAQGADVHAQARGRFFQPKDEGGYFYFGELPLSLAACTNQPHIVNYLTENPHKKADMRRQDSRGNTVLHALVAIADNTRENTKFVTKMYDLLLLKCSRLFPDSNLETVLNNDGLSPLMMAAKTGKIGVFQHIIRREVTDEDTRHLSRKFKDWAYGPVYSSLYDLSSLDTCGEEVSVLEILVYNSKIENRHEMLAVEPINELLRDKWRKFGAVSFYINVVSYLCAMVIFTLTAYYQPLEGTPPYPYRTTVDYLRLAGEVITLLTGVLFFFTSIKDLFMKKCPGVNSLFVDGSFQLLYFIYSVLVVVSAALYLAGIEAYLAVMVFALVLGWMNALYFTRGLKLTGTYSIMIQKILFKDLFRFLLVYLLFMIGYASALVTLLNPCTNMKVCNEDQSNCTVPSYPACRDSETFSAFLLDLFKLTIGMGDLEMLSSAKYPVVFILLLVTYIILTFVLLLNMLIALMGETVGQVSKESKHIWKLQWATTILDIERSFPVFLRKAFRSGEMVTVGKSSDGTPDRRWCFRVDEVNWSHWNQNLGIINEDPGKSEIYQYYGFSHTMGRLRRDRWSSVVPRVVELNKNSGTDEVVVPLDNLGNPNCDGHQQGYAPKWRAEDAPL

Take `CN(CCc1ccc(Nc2nc(-c3ccncc3)cs2)cc1)Cc1ccccc1` [16-13]: the “average peak ∆Ca++ concentration” value in test [1] (5 μM inhibitor, GSK101 5 nM) is 52 nM.

Take `CN(CCc1ccc(Nc2nc(-c3cccnc3)cs2)cc1)Cc1ccccc1` [GSK205, reference compound]: the “pain behavior, delayed (late neural) phase” value in test [2] was “no significant effect”. Besides, in test [3], the “attenuation of trigeminal formalin-evoked pain behavior” value is “effective attenuation; also recorded: effective previously in a dose-dependent manner”. Moreover, the values for the IC50 in test [1] and in test [4] were 4.19 ± 0.71 µM and 5.56 µM, respectively. Moreover, the “average peak ∆Ca++ concentration” value in test [1] (5 μM inhibitor, GSK101 5 nM) was found to be 650 nM.

For `CCN(CCc1ccc(Nc2nc(-c3cccnc3)cs2)cc1)Cc1ccccc1` [16-18], in test [1] (5 μM inhibitor, GSK101 5 nM), the “average peak ∆Ca++ concentration” value is reported as 14 nM. Further, the “increased potency over GSK205” value in test [1] (from TRPV4 IC50 values) is recorded as roughly 5 fold. The IC50 (usually the midpoint of a concentration-inhibition curve) in test [4] is greater than 25 µM. In test [4] (100 μM mustard oil, N2a cells), the “activity vs TRPA1” value is given as “no significant activity”.

`CN(CCc1ccc(Nc2nc(-c3cccnc3)cs2)cc1)c1ccccc1` [16-16]: in test [1] (5 μM inhibitor, GSK101 5 nM), the “average peak ∆Ca++ concentration” value is 263 nM.

In the case of `CN(CCc1ccc(Nc2nc(-c3ccccn3)cs2)cc1)Cc1ccccc1` [16-14], the “average peak ∆Ca++ concentration” value in test [1] (5 μM inhibitor, GSK101 5 nM) is 558 nM.

For `CN(CCc1ccc(Nc2nc(-c3cccnc3)cs2)cc1)CCc1cccnc1` [16-12], the “average peak ∆Ca++ concentration” value in test [1] (5 μM inhibitor, GSK101 5 nM) is 39.5 nM.

On to `CN(CCc1ccc(Nc2ncc(-c3cccnc3)s2)cc1)Cc1ccccc1` [16-43C], for which, in test [1] (5 μM inhibitor, GSK101 5 nM), the “inhibition of TRPV4-mediated Ca++ influx” value is reported as “did not inhibit Ca^++ influx” and the “average peak ∆Ca++ concentration” value was 1210 nM.

`CCC(=N\O)/C(C)=C/c1ccc(F)cc1` [A967079, reference compound]: the “reduction of pain behavior, late neural phase” value in test [5] is on record as “more than 50%”.
